From US10913709B2, “STAT3 inhibitor formulation” (priority 2017, dated 2021)

Tests used:
[1] = Aqueous solubility in the presence of various bases (Example 1); format: physicochemical
Excerpt: (§1) The resulting mixtures were examined for both solubility and stability with the results being analyzed high-performance liquid chromatography (HPLC) with UV and mass spectroscopy detection.

[2] = Observation for toxicity and mortality in the PK study; format: in vivo
Description: Mice were weighed within 72 hours of receipt and again on Study Day −1. Mice were observed once daily prior to day 0, and at least twice daily beginning on day 0 for 24 hours post-dose for morbidity and moribundity.

[3] = Plasma stability in mouse plasma; format: in vitro ADME
Description: An hour-by-hour analysis was then conducted, showing a marked decrease at ambient conditions (see Table 4). […] It should be noted that the time measurement for ambient is listed in hours (Table 4) compared with the time for the −20° C., which was measured in days (Table 5).

[4] = Stability in acetonitrile extract (post sample preparation); format: physicochemical; details: 6 days
Description: In particular, once the centrifugation was performed on the blood samples to provide the plasma samples for analysis, extraction into acetonitrile was done as quickly as possible (e.g., <1 hour).

[5] = Body weight and toxicity during the chemoprevention study; format: in vivo, female MMTV/Neu mice; details: gavage 5 times/week, 500, 250, and 100 mg/kg BW/day, throughout the experiment
[6] = system: DMBA-induced mammary cancer; assay: Chemoprevention study of DMBA-induced mammary cancer
Description: The negative control group received vehicle (purified water) only. In order to accelerate tumor formation, the mice were also given 7,12-dimethylbenz[a]anthracene (DMBA) by gavage 1 time/week for 4 weeks beginning at 57 days of age. The study was terminated 4 months after DMBA exposure. During the treatment period, the body weights of the mice and the appearance of palpable mammary tumors were monitored on a weekly and twice-weekly basis, respectively.

Ki67 expression = Ki67 expression in normal mammary gland, immunohistochemical analysis; details: two weeks of treatment
Description: Ki67 expression was assessed by immunohistochemical analysis of the normal ductal epithelium. Stained sections were scanned and quantitated using automated image analysis software.

[7] = Stability in water in the presence of various bases, HPLC with UV and MS detection (Example 1); format: physicochemical
Excerpt: as §1

[8] = cited from earlier work

Cc1ccc(S(=O)(=O)OCC(=O)Nc2ccc(C(=O)O)c(O)c2)cc1 [Compound 1]
solubility in water ([1]; water): highly soluble in water | signs of toxicity post-dose ([2]; groups A-H: IV 50 mg/kg, PO 500, 250, 125 mg/kg, observed 24 hours post-dose): None of the mice in groups A-H demonstrated signs of toxicity | mortality ([2]; oral or IV administration, any of the doses administered): no mortality | recovery at 0 h ([3]; ambient conditions, 0 hours): 88.6% | recovery at 1 h ([3]; ambient conditions, 1 hour): 61.2% | recovery at 2 h ([3]; ambient conditions, 2 hours): 52.6% | recovery at 3 h ([3]; ambient conditions, 3 hours): 28.7% | recovery at 5 h ([3]; ambient conditions, 5 hours): 21.3% | recovery at 6 h ([3]; ambient conditions, 6 hours): 15.8% | plasma stability, daily assessment ([3]; samples assessed daily, no free acid observed after 1 day): stability was short | recovery at 0 days ([3]; −20° C., 0 days): 94.5% | recovery at 1 days ([3]; −20° C., 1 day): 76.6% | recovery at 2 days ([3]; −20° C., 2 days): 65.7% | recovery at 3 days ([3]; −20° C., 3 days): 58% | recovery at 6 days ([3]; −20° C., 6 days): 46.6% | stability in an acetonitrile extract [4]: little/no degradation | weight loss or toxicity [5]: No weight loss or toxicity was observed | effect in preventing breast cancer ([6]; 500 mg/kg BW/day by gavage): greatest effect | onset of DMBA-induced breast cancer ([6]; all doses tested (500, 250, and 100 mg/kg BW/day by gavage)): able to delay the onset | incidence, multiplicity, and weights of mammary tumors compared to the vehicle-only control ([6]; gavage 5 times/week, 500, 250, and 100 mg/kg BW/day, DMBA-accelerated, 4 months): dose-dependent decrease | inhibition of Ki67 (Ki67 expression; 250 mg/kg BW/day): 85% | inhibition of Ki67 (Ki67 expression; 500 mg/kg BW/day): 83%

Cc1ccc(S(=O)(=O)OCC(=O)Nc2ccc(C(=O)O)c(O)c2)cc1 [NSC-74859]
solubility ([1]; water with 1.1 molar equivalents of TRIZMA base, aqueous buffer, thermodynamic from solid, with 1.1 molar equivalents TRIZMA (2-amino-2-(hydroxymethyl)-1,3-propanediol), pH 7 water): ~60 mg/mL | aqueous solubility ([1]; with 1.1 molar equivalents of base in water, all bases examined (LiOH, NaOH, K2CO3, NaHCO3, TRIZMA)): good aqueous solubility | degradation (loss of the tosylate group) ([7]; in stronger bases, such as sodium hydroxide, in water): Degradation was much more pronounced | time the product remained stable ([7]; with TRIZMA, in water at room temperature, initial analysis): ~8 h | solubility in water and ethanol [8]: poorly soluble in water and ethanol
